The target in one test is T1, human GPR52 (Homo sapiens, UniProt Q9Y2T5).
T1 construct: expressed in transfected cells; host or cells: HEKf suspension cells infected with BacMam virus
As to the kind of experiment: GPR52 Agonist Functional cAMP Assay. Particulars: for EC50: HEKf cells infected with human GPR52 BacMam virus, HTRF cAMP, 30 min at 37° C., read-out: PEC50 average (converted); for Emax / Emax (%): maximal response normalised to DMSO (0%) and compound 7m of J. Med. Chem., 2014, 57, 5226 (100%). It counts as cell-based. Here is the method: GPR52 Agonist Functional cAMP Assay
HEKf suspension cells were infected for 24 h with 0.1% v/v human GPR52 expressing BacMam virus, a modified baculovirus designed for mammalian gene expression. Following BacMam infection, cells were pelleted by centrifugation (335 g, 5 min), resuspended in cell freezing medium (Sigma) and frozen at −150° C. until required. On experiment day, 25 nL GPR52 compound dilutions, prepared in DMSO, were stamped onto proxiplates (PerkinElmer) by a LabCyte ECHO acoustic dispenser. Frozen cells were thawed and resuspended in assay stimulation buffer (Cisbio) containing 0.5 mM 3-iso-butyl-1-methylxanthine (IBMX, Sigma) to achieve a density of 2000 cells per well. 10 μl cells were added to assay plates using a Multidrop Combi Reagent Dispenser (ThermoFisher) before centrifugation (335 g, 1 min). Cells were incubated with compounds at 37° C. for 30 min prior to addition of cAMP detection reagents (HiRange cAMP kit, Cisbio) which were prepared according to the manufacturer's instructions. Plates were shaken for 1 h at room temperature before reading on a PHERAstar FS plate reader (BMG Labtech) using standard HTRF settings. HTRF ratios were obtained by dividing the acceptor emissions (665 nm) by the donor emissions (620 nm) and multiplying by 10,000.

Test [1] concerns caffeine-induced hyperlocomotor activity. As to the kind of experiment: Attenuation of caffeine-induced locomotor activity in rat. It counts as in vivo, male Sprague-Dawley rats. Particulars: PO 60 min before caffeine 15 mg/kg SC, locomotor activity over 2 h, FIG. 1. The source says: Caffeine, a non-selective adenosine receptor antagonist, is a psychostimulant which increases rodent locomotor activity principally via blockade of A2A receptors (Br. J. Pharmacol., 2000, 129, 1465). These receptors are densely expressed on the terminals of GABAergic striatopallidal neurons in the indirect pathway of the basal ganglia, in which dopamine D2 receptors are co-expressed (J. Comp. Neurol., 1998, 401, 163; J. Comp. Neurol., 2001, 431, 331). Tonic activation of A2A receptors decreases the affinity of D2 receptors to dopamine and antagonism of A2A receptors facilitates dopaminergic signalling (Curr. Pharm. Des., 2008, 14, 1468). […] Male Sprague-Dawley rats (200-250 g) were housed in groups with a 12 h light/dark cycle (lights on at 07.00), at an ambient temperature of 21±2° C. and with standard pelleted diet and water adlibitum. Testing was carried out in the light phase. On the day of the experiment, animals were habituated to the locomotor cages for a 60-minute period. Subsequently, they were dosed with vehicle or Example 2 Isomer 1 (0.1, 0.3, 1 and 3 mg/kg) by the oral route and returned to the appropriate locomotor cage. Example 2 Isomer 1 was formulated in a vehicle of 10% DMAC, 10% solutol (Kolliphor HS15) and 80% water (v/v/v). […] Locomotor activity was assessed for a 2 h period after caffeine treatment. […] SEMs were calculated from the residuals of the statistical model. […]

The Emax is the maximal effect, on the per cent scale that the assay sets.

T1 sequence (Q9Y2T5 whole entry): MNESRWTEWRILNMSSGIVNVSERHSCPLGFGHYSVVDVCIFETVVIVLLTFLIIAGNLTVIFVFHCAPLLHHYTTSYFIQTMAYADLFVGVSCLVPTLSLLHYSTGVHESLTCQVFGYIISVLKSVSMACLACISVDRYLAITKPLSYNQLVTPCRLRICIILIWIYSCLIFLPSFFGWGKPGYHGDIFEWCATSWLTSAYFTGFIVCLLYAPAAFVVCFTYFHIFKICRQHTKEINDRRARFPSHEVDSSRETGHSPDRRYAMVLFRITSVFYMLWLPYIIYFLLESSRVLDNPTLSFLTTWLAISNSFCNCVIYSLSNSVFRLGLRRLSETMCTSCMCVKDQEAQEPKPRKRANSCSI

As for `CC(=O)NC1CCCc2c1nnn2-c1cc(Cc2cccc(C(F)(F)F)c2)ccn1` (stereo not drawn) [Example 11, N-(1-(4-(3-(trifluoromethyl)benzyl)pyridin-2-yl)-4,5,6,7-tetrahydro-1H-benzo[d][1,2,3]triazol-4-yl)acetamide], on human GPR52, the EC50 was 200 nM and the Emax was 91%.

As to `CC(=O)NC1CCCc2c1nnn2-c1cc(Cc2cc(F)cc(C(F)(F)F)c2)ccn1` (single isomer, unassigned) [Example 2 Isomer 1, N-(1-(4-(3-fluoro-5-(trifluoromethyl)benzyl)pyridin-2-yl)-4,5,6,7-tetrahydro-1H-benzo[d][1,2,3]triazol-4-yl)acetamide], the “effect on caffeine-induced hyperlocomotor response” value in test [1] was “dose-dependent reduction of the caffeine-induced hyperlocomotor response, reaching statistical significance across all time points at 3 and 10 mg/kg”. Also, on human GPR52, the EC50 was 15.8 nM and the “Emax (%)” value is 91%.

For `NC1CCCc2c1nnn2-c1cc(Cc2cc(F)cc(C(F)(F)F)c2)ccn1` (stereo not drawn) [Example 1, 1-(4-(3-fluoro-5-(trifluoromethyl)benzyl)pyridin-2-yl)-4,5,6,7-tetrahydro-1H-benzo[d][1,2,3]triazol-4-amine], at human GPR52, the EC50 was 25.1 nM and the Emax turned out to be 100%.

Take `O=C(NC1CCCc2c1nnn2-c1cc(Cc2cc(F)cc(C(F)(F)F)c2)ccn1)C(F)F` (stereo not drawn) [Example 4, 2,2-difluoro-N-(1-(4-(3-fluoro-5-(trifluoromethyl)benzyl)pyridin-2-yl)-4,5,6,7-tetrahydro-1H-benzo[d][1,2,3]triazol-4-yl)acetamide]: at human GPR52, the EC50 is 25.1 nM and the Emax was found to be 87%.

In the case of `Fc1cc(Cc2ccnc(-n3nnc4c3CCCC4NC3COC3)c2)cc(C(F)(F)F)c1` (stereo not drawn) [Example 9, 1-(4-(3-fluoro-5-(trifluoromethyl)benzyl)pyridin-2-yl)-N-(oxetan-3-yl)-4,5,6,7-tetrahydro-1H-benzo[d][1,2,3]triazol-4-amine], at human GPR52, the EC50 was 100 nM and the Emax came out at 93%.

On to `CC(=O)NC1CCCc2c1nnn2-c1cc(Cc2cc(F)cc(C(F)F)c2)ccn1` (single isomer, unassigned) [Example 13 Isomer 1, N-(1-(4-(3-(difluoromethyl)-5-fluorobenzyl)pyridin-2-yl)-4,5,6,7-tetrahydro-1H-benzo[d][1,2,3]triazol-4-yl)acetamide], for which, at human GPR52, the EC50 was 501 nM and the Emax is 73%.

With `NC1CCCc2c1nnn2-c1cc(Cc2cc(F)cc(C(F)(F)F)c2)ccn1` (single isomer, unassigned) [Example 1 Isomer 1, 1-(4-(3-fluoro-5-(trifluoromethyl)benzyl)pyridin-2-yl)-4,5,6,7-tetrahydro-1H-benzo[d][1,2,3]triazol-4-amine], at human GPR52, the EC50 was 12.6 nM and the Emax was 101%.

In the case of `NC1CCCc2c1nnn2-c1cc(Cc2cc(F)cc(C(F)(F)F)c2)ccn1` (single isomer, unassigned) [Example 1 Isomer 2, 1-(4-(3-fluoro-5-(trifluoromethyl)benzyl)pyridin-2-yl)-4,5,6,7-tetrahydro-1H-benzo[d][1,2,3]triazol-4-amine], at human GPR52, the EC50 is 63.1 nM and the “Emax (%)” value was 97%.

`O=C(CF)NC1CCCc2c1nnn2-c1cc(Cc2cc(F)cc(C(F)(F)F)c2)ccn1` (stereo not drawn) [Example 5, 2-fluoro-N-[1-(4-{[3-fluoro-5-(trifluoromethyl)phenyl]methyl}pyridin-2-yl)-4,5,6,7-tetrahydro-1H-benzotriazol-4-yl]acetamide]: at human GPR52, the EC50 was 39.8 nM and the Emax came out at 94%.

On to `COCCNC1CCCc2c1nnn2-c1cc(Cc2cc(F)cc(C(F)(F)F)c2)ccn1` (stereo not drawn) [Example 8, 1-(4-(3-fluoro-5-(trifluoromethyl)benzyl)pyridin-2-yl)-N-(2-methoxyethyl)-4,5,6,7-tetrahydro-1H-benzo[d][1,2,3]triazol-4-amine], for which, on human GPR52, the EC50 is 50.1 nM and the Emax worked out at 94%.

Regarding `CC(=O)NC1CCCc2c1nnn2-c1cc(Cc2cc(F)cc(C(F)(F)F)c2)ccn1` (single isomer, unassigned) [Example 2 Isomer 2, N-(1-(4-(3-fluoro-5-(trifluoromethyl)benzyl)pyridin-2-yl)-4,5,6,7-tetrahydro-1H-benzo[d][1,2,3]triazol-4-yl)acetamide], at human GPR52, the EC50 was 2510 nM and the Emax was found to be 78%.

Regarding `CC(=O)NC1CCCc2c1nnn2-c1cc(Cc2cc(F)cc(CF)c2)ccn1` (stereo not drawn) [Example 14, N-(1-(4-(3-fluoro-5-(fluoromethyl)benzyl)pyridin-2-yl)-4,5,6,7-tetrahydro-1H-benzo[d][1,2,3]triazol-4-yl)acetamide], at human GPR52, the EC50 is 50.1 nM and the Emax is 90%.

As to `CC(=O)NC1CCCc2c1nnn2-c1cc(Oc2cc(F)cc(C(F)(F)F)c2)ccn1` (stereo not drawn) [Example 6, N-(1-(4-(3-fluoro-5-(trifluoromethyl)phenoxy)pyridin-2-yl)-4,5,6,7-tetrahydro-1H-benzo[d][1,2,3]triazol-4-yl)acetamide], at human GPR52, the EC50 is 126 nM and the Emax is 89%.

`CC(=O)NC1CCCc2c1nnn2-c1cc(Cc2cc(F)cc(OC(F)F)c2)ccn1` (stereo not drawn) [Example 12, N-(1-(4-(3-(difluoromethoxy)-5-fluorobenzyl)pyridin-2-yl)-4,5,6,7-tetrahydro-1H-benzo[d][1,2,3]triazol-4-yl)acetamide]: on human GPR52, the EC50 is 31.6 nM and the Emax was determined as 87%.

For `Fc1cc(Cc2ccnc(-n3nnc4c3CCCC4NC3CCOC3)c2)cc(C(F)(F)F)c1` (stereo not drawn) [Example 10, 1-(4-(3-fluoro-5-(trifluoromethyl)benzyl)pyridin-2-yl)-N-(tetrahydrofuran-3-yl)-4,5,6,7-tetrahydro-1H-benzo[d][1,2,3]triazol-4-amine], on human GPR52, the EC50 is 31.6 nM and the Emax stood at 94%.

For the compound `CCC(=O)NC1CCCc2c1nnn2-c1cc(Cc2cc(F)cc(C(F)(F)F)c2)ccn1` (stereo not drawn) [Example 3, N-(1-(4-(3-fluoro-5-(trifluoromethyl)benzyl)pyridin-2-yl)-4,5,6,7-tetrahydro-1H-benzo[d][1,2,3]triazol-4-yl)propionamide], on human GPR52, the EC50 was 25.1 nM and the Emax was 96%.

For `CC(=O)NC1CCCc2c1nnn2-c1cc(Cc2cc(F)cc(C(F)F)c2)ccn1` (single isomer, unassigned) [Example 13 Isomer 2, N-(1-(4-(3-(difluoromethyl)-5-fluorobenzyl)pyridin-2-yl)-4,5,6,7-tetrahydro-1H-benzo[d][1,2,3]triazol-4-yl)acetamide], at human GPR52, the EC50 is 5.01 nM and the “Emax (%)” value stood at 93%.

`CC(=O)NC1CCCc2c1nnn2-c1cc(Cc2cc(F)cc(C(F)F)c2)ccn1` (stereo not drawn) [Example 13, N-(1-(4-(3-(difluoromethyl)-5-fluorobenzyl)pyridin-2-yl)-4,5,6,7-tetrahydro-1H-benzo[d][1,2,3]triazol-4-yl)acetamide]: at human GPR52, the EC50 is 12.6 nM and the maximal effect (Emax) was 93%.

Turning to `CNC1CCCc2c1nnn2-c1cc(Cc2cc(F)cc(C(F)(F)F)c2)ccn1` (stereo not drawn) [Example 7, 1-(4-(3-fluoro-5-(trifluoromethyl)benzyl)pyridin-2-yl)-N-methyl-4,5,6,7-tetrahydro-1H-benzo[d][1,2,3]triazol-4-amine], on human GPR52, the EC50 was 31.6 nM and the Emax stood at 98%.

These data come from patent US20230348416A1, “GPR52 MODULATOR COMPOUNDS” (Heptares Therapeutics Limited, priority 2020, published 2023).
